For one experiment, the system named is HAP-1 and HAP-1.KO.GPx1. Kind of experiment: DCFDA ROS assay with GSH added to the medium. The experiment is classed as cell-based, human. The note with it: 25 µM pentathiepin plus 3 or 30 µM GSH in medium, 15 min. As for the experimental part: As thiols are supposedly needed for the activation of the pentathiepins, the influence of additional glutathione added to the culture medium during treatment on the intracellular ROS levels was assessed. In these experiments, 3 or 30 µM of GSH were added to the medium containing 25 µM of pentathiepin or solvent, respectively (Figure 9).
In order to quantify intracellular ROS, we performed a flow cytometric assay based on the ROS-sensor 2′,7′-dichlorofluorescein diacetate (DCFDA). […] Per condition, 250,000 cells were seeded in 2 mL of medium per well of a 6-well plate and allowed to adhere overnight. For measurement of acute ROS, the cells were stained with 1 mL of a 20 µM DCFDA-PBS solution for 30 min under standard incubation conditions. […] After removing the solution and washing again with PBS, the cells were detached by using 0.5 mL of a diluted trypsin/EDTA-PBS solution (25%) and harvested with 1 mL of culture medium by carefully rinsing the wells. The cell suspension was transferred to 1.5 mL tubes, centrifuged for 5 min at 500× g, and washed with 1 mL of PBS. After removing the supernatant, each pellet was resuspended in 0.5 mL of PBS for measurement via the MACSquant Analyzer 10 at λEx/Em = 488/530 nm. Relative ROS levels resulting from treatment with pentathiepin were calculated by relating the fluorescence intensity of treated samples to the negative control. For the experiments covering periods of 24 and 48 h, the cells were incubated with the compounds first and stained with DCFDA afterwards. To assess the influence of additional GSH, we included 3 or 30 µM GSH to the medium containing 25 µM of pentathiepin, and the protocol was followed as described.

Experiment [1] relates to HAP-1, HAP-1.KO.GPx1, Siso and A2780 cells. Kind of experiment: cellular morphology after 24 h. It is filed as cell-based, human. The following applies: summary grade. Details: key: no impact (0); weak impact (+); strong impact (++). The text has this: All new pentathiepins induced apoptosis, although to different extents and in a cell line-dependent manner. […] In the corresponding GPx1-knockout cell line, the effect of doxorubicin was higher (about 50%), whereas only two of the pentathiepins induced apoptosis, namely, 3 and 5. The fractions of early apoptotic cells were 34 and 15%, respectively, and the population of late apoptotic cells 6% for 3. In the ovarian carcinoma cell line A2780 the overall effects were marginal, but all compounds except 6 increased the percentage of early apoptotic cells to 6–14%, with 3 resulting in the highest amount. In the Siso cell line, pentathiepin 3 increased both the number of early and late apoptotic cells to about 20%, which exceeded the effects of doxorubicine (0.5 µM). These findings were further corroborated by the observation of morphological features such as membrane blebbing and cell shrinkage as particular hallmarks of apoptosis (Figure S51).
Figure S51: Representative images of cellular morphology after an incubation for 24 h with the respective pentathiepins 1-6 (IC90) or a corresponding volume of DMF as negative control in HAP-1, HAP-1.KO.GPx1, Siso and A2780 cells. Arrows denote membrane blebbing, dashed arrows label cell shrinkage.
(1 picture or pasted object on this page, not shown here)

Another experiment concerns GR/CAT. Kind of experiment: GR/CAT inhibition (summary of off-target assays). It is filed as biochemical. Set-up: key: no impact (0); weak impact (+); strong impact (++). The following applies: summary grade. As for the experimental part: To assess the specificity of inhibitors toward the GPx1, we performed enzymatic assays with other relevant antioxidant enzymes. These included the glutathione reductase (GR; yeast-derived), which is an auxiliary component of the GPx1 assay, and catalase (CAT; bovine), a key redox enzyme that fulfils a similar enzymatic task as the GPx1 by detoxifying hydrogen peroxide. None of the pentathiepins altered the activity of either enzyme at a concentration of 25 µM (Figure 5b,c).
Off-target assays were conducted to assess the specificity of the pentathiepins for inhibiting the GPx1; these were the activities of GR and CAT (from bovine liver) that have previously been described. As the baker’s yeast GR is an important component in the GPx assay, its inhibition by pentathiepins had to be excluded. A fixed pentathiepin concentration of 25 µM was tested in triplicate, following the same principle as mentioned before, by monitoring the consumption of NADPH by the GR at λ = 340 nm while GSSG is reduced back to GSH. All assay components were prepared in potassium phosphate buffer (50 mM, pH 7.4, 1.1 mM EDTA, 0.01% Triton-X solution), except for the inhibitor that was diluted in DMF. Subsequently, 180 µL of buffer was added per well followed by 30 µL of a 2.0 U/mL GR solution, 30 µL of a 2.0 mM NADPH solution, and 30 µL of a 250 µM pentathiepin solution or 30 µL of DMF as negative control. Finally, to start the reaction, 30 µL of a 2.5 mM GSSG solution was added, resulting in final concentrations of 0.2 U/mL of GR, 0.2 mM of NADPH, 25 µM of pentathiepin, and 0.25 mM of GSSG. After measuring the decrease of NADPH every 15 s for 30 min at room temperature, the relative inhibition of the GR was calculated by relating the activity of the pentathiepin-treated samples to the negative control.
The CAT activity assay is based on the principle that in the presence of H2O2 and heat, and dichromate in acetic acid is reduced to chromic acetate via perchromic acid as unstable intermediate. Here, the amount of chromic acetate is measured twice, once directly after adding H2O2 (t0min) and once again after the CAT (bovine origin) split the H2O2 for a period of 10 min (t10min) in the presence or absence of a putative inhibitor. Samples in this assay included a blank (+CAT/+DMF/−H2O2), a H2O2 standard (−CAT/+DMF/+H2O2), a negative control (+CAT/+DMF/+H2O2), and the test conditions (+CAT/+25 µM pentathiepin/+H2O2). For each condition, 3.0 mL of 0.002 mg/mL CAT in potassium phosphate buffer (50 mM, pH 7.4, EDTA 1.1 mM, Triton-X 0.01%) were prepared in a glass tube. Additionally, two tubes were prepared per condition each containing 2 mL of a reagent containing 1 part of an aqueous solution of K2Cr2O7 (5%) and 2 parts glacial acetic acid. Subsequently, the solvent or inhibitors were added, and the tubes placed on a shaker for 5 min. To start the reaction, 61.8 µL of a 30% H2O2 solution was added and then mixed, and immediately 1 mL was transferred to one tube containing the K2Cr2O7/acetic acid solution (t0min). The remaining 2 mL was incubated on a shaker for 10 min, and then the previous step was repeated (t10min). Finally, all tubes were boiled in a water bath and cooled down to room temperature, and then absorbance was measured at λ = 570 nm and the instrument was blanked with the blank solution. The difference in absorbance between t0min and t10min was calculated, and all samples were related to the negative control.

On to `CCOc1c2c(c3ccc(C(=O)N4CCN(C(=O)c5ccc(F)cc5)CC4)cn13)SSSSS2` [Compound 5, (6-Ethoxy-[1,2,3,4,5]pentathiepino[6,7-a]indolizin-9-yl)(4-(4-fluorobenzoyl)piperazinyl)methanone], for which the “effect of added GSH on intracellular ROS” value in the experiment on HAP-1 and HAP-1.KO.GPx1 is reported as “roughly doubling the effect of the compound alone”. The Morphological changes entry in experiment [1] is “++”. For the same compound, in the experiment on GR/CAT, the GR/CAT inhibition is listed as 0.

As for `CCOc1c2c(c3ccc(C(=O)N4CCCCC4)cn13)SSSSS2` [Compound 2, (6-Ethoxy-[1,2,3,4,5]pentathiepino[6,7-a]indolizin-9-yl)(piperidinyl)methanone], the “effect of added GSH on intracellular ROS” value in the experiment with HAP-1 and HAP-1.KO.GPx1 is given as “roughly doubling the effect of the compound alone”. In addition, in experiment [1], the Morphological changes entry was “+”. Further, in the experiment on GR/CAT, the GR/CAT inhibition amounted to 0.

Turning to `CCOc1c2c(c3ccc(C(=O)N4CCOCC4)cn13)SSSSS2` [Compound 3, (6-Ethoxy-[1,2,3,4,5]pentathiepino[6,7-a]indolizin-9-yl)(morpholino)methanone], the “effect of added GSH on intracellular ROS” value with HAP-1 and HAP-1.KO.GPx1 was “tendency toward decreased oxidative stress”. The Morphological changes result in experiment [1] is “++”. In the experiment with GR/CAT, this compound came in with a GR/CAT inhibition of 0.

As to `CCOc1c2c(c3ccc(C(=O)N(CC)CC)cn13)SSSSS2` [Compound 4, 6-Ethoxy-N,N’-diethyl-[1,2,3,4,5]pentathiepino[6,7-a]indolizine-9-carboxamide], in the experiment with HAP-1 and HAP-1.KO.GPx1, the “effect of added GSH on intracellular ROS” value is recorded as “an ascending trend was observed but not determined as statistically significant”. For the same compound, in experiment [1], the Morphological changes result is “++”. In the experiment on GR/CAT, this compound returned a GR/CAT inhibition of 0.

As for `CCOc1c2c(c3cnc4[nH]c(-c5ccc(OC)cc5)cc4n13)SSSSS2` [Compound 1, 11-Ethoxy-2-(4-methoxyphenyl)-3H-[1,2,3,4,5]pentathiepino[6′,7′:3,4]pyrrolo[1,2-a]pyrrolo[2,3-e]pyrazine], the “effect of added GSH on intracellular ROS” value in the experiment on HAP-1 and HAP-1.KO.GPx1 is listed as “No change was observed”. In experiment [1], the Morphological changes amounted to 0. In the experiment on GR/CAT, the GR/CAT inhibition is 0.

On to `CCOc1c2c(c3ccc(C(=O)N4CCN(S(=O)(=O)c5ccc(C)cc5)CC4)cn13)SSSSS2` [Compound 6, (6-Ethoxy-[1,2,3,4,5]pentathiepino[6,7-a]indolizin-9-yl)(4-tosylpiperazinyl)methanone], for which the “effect of added GSH on intracellular ROS” value in the experiment with HAP-1 and HAP-1.KO.GPx1 was “tendency toward decreased oxidative stress”. Also, in experiment [1], the Morphological changes entry is “+”. For the same compound, the GR/CAT inhibition with GR/CAT amounted to 0.
